Laboratory results reported in US5079150A, “High sensitivity detection of peroxidase activity” (Becton, Dickinson and Company, priority 1988, dated 1992).

Columns and labels:
Horseradish peroxidase = molecular target: T1, Horseradish peroxidase (Armoracia rusticana, UniProt P00433); test: Comparison of substrates for HRP detection on membranes, reflectance densitometer; format: biochemical; details: substrate 2 mg/mL, approximately three minutes
T1 sequence (P00433 31-353): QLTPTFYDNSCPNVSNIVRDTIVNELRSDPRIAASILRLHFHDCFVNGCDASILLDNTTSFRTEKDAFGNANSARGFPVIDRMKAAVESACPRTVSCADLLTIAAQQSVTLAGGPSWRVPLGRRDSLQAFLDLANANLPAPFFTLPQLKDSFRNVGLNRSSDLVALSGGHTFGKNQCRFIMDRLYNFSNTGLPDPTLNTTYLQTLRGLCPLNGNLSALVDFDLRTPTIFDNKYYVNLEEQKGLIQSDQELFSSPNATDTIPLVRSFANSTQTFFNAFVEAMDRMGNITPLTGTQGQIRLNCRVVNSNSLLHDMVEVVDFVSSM
Protocol: Horseradish peroxidase was diluted serially in 10-fold steps in a buffer containing 51 mM phosphate, 24 mM citrate, pH 5.0. Spot volumes of 1 μL of each stock were applied to either nitrocellulose (0.45 micron, Schleicher and Schuell) or IMMUNODYNE™ nylon immunoaffinity membrane (5 micron, Pall). The membranes were allowed to air dry and then immersed in filtered substrate solutions containing 2 mg/mL of substrate compound and 0.68 μL/mL of 30% hydrogen peroxide in citrate/phosphate buffer. The reaction was quenched after approximately three minutes with a water rinse. The colored spots were quantitated with a reflectance densitometer (Gretag model 183). The results are presented in Table II in arbitrary units of color density.

[1] = molecular target: T2, HRP conjugated anti RSV monoclonal antibody (Armoracia rusticana, UniProt P00433); test: Sandwich immunoassay for RSV on IMMUNODYNE nylon membrane, HRP-labelled antibody, colored spot read with densitometer; format: biochemical, Horseradish; details: for intensity of the colored spot (color density): substrate 2 mg/mL
T2 sequence (P00433 31-338 limits assumed): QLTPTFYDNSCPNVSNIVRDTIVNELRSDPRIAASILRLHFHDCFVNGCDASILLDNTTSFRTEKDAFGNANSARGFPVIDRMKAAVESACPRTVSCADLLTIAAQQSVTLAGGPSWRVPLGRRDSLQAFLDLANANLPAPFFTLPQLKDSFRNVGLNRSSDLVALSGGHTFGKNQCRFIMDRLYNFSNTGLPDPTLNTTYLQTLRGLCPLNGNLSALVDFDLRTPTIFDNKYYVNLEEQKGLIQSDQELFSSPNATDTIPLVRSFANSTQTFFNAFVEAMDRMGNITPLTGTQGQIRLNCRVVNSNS
Protocol: Ten μg of anti RSV antibody in 2 μl of carbonate buffer (50 mM, pH 9.5) were applied to an IMMUNODYNE™ nylon membrane with a micropipette. The membrane was incubated with a TRIS buffered solution of casein to block the remaining sites, and dried. The membrane was assembled into a device which allows liquids to be passed through the membrane and into an absorbent pad. Serial dilutions of a 300 ng stock of RSV infected HEp-2 cells were prepared in a buffer containing TRIS, sodium chloride, EDTA and a detergent. 150 μl of this material was passed through the membrane. Another antibody coated membrane was treated with 300 ng of uninfected cells as a control.
The membranes were washed with TRIS buffered saline (TBS) and incubated with HRP conjugated anti RSV monoclonal antibody in TRIS containing casein. After two washings with TBS buffer, the membranes were treated with citrate/phosphate buffered (pH 5.0) solutions of DAT and DAB (2 mg/mL) containing hydrogen peroxide. After a five minute incubation, the enzymatic reaction was stopped by the addition of TBS, and the intensity of the colored spots was compared using a densitometer (Model 183, Gretag Ltd., CH-8105 Regensdorf, Switzerland). The background control substracted results of this experiment are presented in Table 1 in arbitrary units of color density.

[2] = IMMUNODYNE nylon membrane, amount of HRP 30 pg
[3] = IMMUNODYNE nylon membrane, amount of HRP 0.3 ng
[4] = IMMUNODYNE nylon membrane, amount of HRP 3 ng
[5] = IMMUNODYNE nylon membrane, amount of HRP 30 ng
[6] = IMMUNODYNE nylon membrane, amount of HRP 0.3 mg
[7] = Nitrocellulose membrane, amount of HRP 30 pg
[8] = Nitrocellulose membrane, amount of HRP 0.3 ng
[9] = Nitrocellulose membrane, amount of HRP 3 ng
[10] = Nitrocellulose membrane, amount of HRP 30 ng
[11] = Nitrocellulose membrane, amount of HRP 0.3 mg
[12] = 11 ng of infected cells, pH 5.0, five minute incubation
[13] = 33 ng of infected cells, pH 5.0, five minute incubation
[14] = 100 ng of infected cells, pH 5.0, five minute incubation
[15] = 300 ng of RSV infected HEp-2 cells, pH 5.0, hydrogen peroxide, five minute incubation, background control subtracted
[16] = Control: 300 ng of uninfected cells, pH 5.0, five minute incubation

SMILES	color density of spot (Horseradish peroxidase; [2])	color density of spot (Horseradish peroxidase; [3])	color density of spot (Horseradish peroxidase; [4])	color density of spot (Horseradish peroxidase; [5])	color density of spot (Horseradish peroxidase; [6])	color density of spot (Horseradish peroxidase; [7])	color density of spot (Horseradish peroxidase; [8])	color density of spot (Horseradish peroxidase; [9])	color density of spot (Horseradish peroxidase; [10])	color density of spot (Horseradish peroxidase; [11])	intensity of the colored spot (color density) [1, 12]	intensity of the colored spot (color density) [1, 13]	intensity of the colored spot (color density) [1, 14]	intensity of the colored spot (color density) [1, 15]	color reading on the densitometer, in words ([1]; 300 ng of infected cells)	intensity of the colored spot (color density) [1, 16]	amount of infected cells down to which stable, deeply colored spots well above control values were obtained ([1]; RSV infected HEp-2 cells)
Nc1cc(Cl)c(Cl)cc1N [4,5-Dichloro-1,2-phenylenediamine]	.00 arbitrary units	.00 arbitrary units	.10 arbitrary units	.41 arbitrary units	.48 arbitrary units	.02 arbitrary units	.10 arbitrary units	.31 arbitrary units	.43 arbitrary units	.60 arbitrary units	–	–	–	–	–	–	–
Cc1cc(N)c(N)cc1C [4,5-Dimethyl-1,2-phenylenediamine]	.00 arbitrary units	.05 arbitrary units	.22 arbitrary units	.50 arbitrary units	.53 arbitrary units	.03 arbitrary units	.11 arbitrary units	.22 arbitrary units	.43 arbitrary units	.55 arbitrary units	–	–	–	–	–	–	–
Nc1ccc(Cl)cc1N [4-Chloro-1,2-phenylenediamine]	.06 arbitrary units	.12 arbitrary units	.68 arbitrary units	1.89 arbitrary units	2.24 arbitrary units	.09 arbitrary units	.26 arbitrary units	.55 arbitrary units	.87 arbitrary units	1.25 arbitrary units	–	–	–	–	–	–	–
Nc1ccc(-c2ccc(N)c(N)c2)cc1N [DAB, 3,3'-diaminobenzidine, reference compound]	.00 arbitrary units	.04 arbitrary units	.22 arbitrary units	.78 arbitrary units	1.67 arbitrary units	.00 arbitrary units	.04 arbitrary units	.22 arbitrary units	.43 arbitrary units	1.03 arbitrary units	.04 arbitrary units	.03 arbitrary units	.04 arbitrary units	.07 arbitrary units	barely perceptible color reading	0 arbitrary units	–
Cc1ccc(N)c(N)c1 [DAT, 3,4 Diaminotoluene]	.04 arbitrary units	.21 arbitrary units	.54 arbitrary units	.85 arbitrary units	.99 arbitrary units	.03 arbitrary units	.09 arbitrary units	.10 arbitrary units	.28 arbitrary units	.38 arbitrary units	.28 arbitrary units	.37 arbitrary units	.57 arbitrary units	.82 arbitrary units	–	.24 arbitrary units	33 ng
Cc1cc(-c2cc(C)c(N)c(C)c2)cc(C)c1N [TMB, 3,3',5,5'-tetramethylbenzidine, reference compound]	.00 arbitrary units	.00 arbitrary units	.11 arbitrary units	.19 arbitrary units	.23 arbitrary units	.01 arbitrary units	.04 arbitrary units	.08 arbitrary units	.09 arbitrary units	.09 arbitrary units	–	–	–	–	–	–	–
